Measurements reported in publication PMC7758046, “Novel piperazine–chalcone hybrids and related pyrazoline analogues targeting VEGFR-2 kinase; design, synthesis, molecular docking studies, and anticancer evaluation” (Journal of Enzyme Inhibition and Medicinal Chemistry, 2020).

Key:
Test in all cases: NCI-60 single-dose anticancer screen
Assay type in all cases: cell-based, human
[1] = system: 786-0 (Renal cancer); conditions: 10 µM single dose
Description: (§1) Six compounds were selected by the NCI, according to NCI’s DTP selection guidelines, for evaluation of their anticancer activity at a single-dose of 10 µM against 60 human tumours cell lines.
(§2) In vitro cytotoxicity was performed in NCI according to reported method.

[2] = system: A498 (Renal cancer); conditions: 10 µM single dose
Description: as §1, §2

[3] = system: ACHN (Renal cancer); conditions: 10 µM single dose
Description: as §1, §2

[4] = system: BT-549 (Breast cancer); conditions: 10 µM single dose
Description: as §1, §2

[5] = system: CAKI-1 (Renal cancer); conditions: 10 µM single dose
Description: as §1, §2

[6] = system: CCRF-CEM (Leukaemia); conditions: 10 µM single dose
Description: as §1, §2

[7] = system: COLO 205 (Colon cancer); conditions: 10 µM single dose
Description: as §1, §2

[8] = system: DU-145 (Prostate cancer); conditions: 10 µM single dose
Description: as §1, §2

[9] = system: HCT-15 (Colon cancer); conditions: 10 µM single dose
Description: as §1, §2

[10] = system: HOP-62 (Non-small cell lung cancer); conditions: 10 µM single dose
Description: as §1, §2

[11] = system: HOP-92 (Non-small cell lung cancer); conditions: 10 µM single dose; for inhibition at 10 µM: Homo sapiens, read-out: cell growth inhibition
Description: as §1, §2

[12] = system: HS 578T (Breast cancer); conditions: 10 µM single dose
Description: as §1, §2

[13] = system: HT29 (Colon cancer); conditions: for cell growth promotion: 10 µM single dose; for inhibition at 10 µM: Homo sapiens, HT-29, 10 µM single dose, read-out: cell growth inhibition
Description: as §1, §2

[14] = system: IGROV1 (Ovarian cancer); conditions: 10 µM single dose
Description: as §1, §2

[15] = system: K-562 (Leukaemia); conditions: for cell growth promotion: 10 µM single dose; for inhibition at 10 µM: Homo sapiens, K562, 10 µM single dose, read-out: cell growth inhibition
Description: as §1, §2

[16] = system: KM12 (Colon cancer); conditions: 10 µM single dose
Description: as §1, §2

[17] = system: LOX IMVI (Melanoma); conditions: 10 µM single dose
Description: as §1, §2

[18] = system: M14 (Melanoma); conditions: 10 µM single dose
Description: as §1, §2

[19] = system: MALME-3M (Melanoma); conditions: 10 µM single dose
Description: as §1, §2

[20] = system: MCF7 (Breast cancer); conditions: 10 µM single dose
Description: as §1, §2

[21] = system: MDA-MB-231/ATCC (Breast cancer); conditions: 10 µM single dose
Description: as §1, §2

[22] = system: MDA-MB-435 (Melanoma); conditions: 10 µM single dose
Description: as §1, §2

[23] = system: MDA-MB-468 (Breast cancer); conditions: 10 µM single dose
Description: as §1, §2

[24] = system: NCI-H226 (Non-small cell lung cancer); conditions: 10 µM single dose
Description: as §1, §2

[25] = system: NCI-H23 (Non-small cell lung cancer); conditions: 10 µM single dose
Description: as §1, §2

[26] = system: NCI-H322M (Non-small cell lung cancer); conditions: 10 µM single dose
Description: as §1, §2

[27] = system: NCI-H460 (Non-small cell lung cancer); conditions: 10 µM single dose
Description: as §1, §2

[28] = system: NCI-H522 (Non-small cell lung cancer); conditions: 10 µM single dose
Description: as §1, §2

[29] = system: NCI/ADR-RES (Ovarian cancer); conditions: 10 µM single dose
Description: as §1, §2

[30] = system: OVCAR-5 (Ovarian cancer); conditions: 10 µM single dose
Description: as §1, §2

[31] = system: OVCAR-8 (Ovarian cancer); conditions: 10 µM single dose
Description: as §1, §2

[32] = system: PC-3 (Prostate cancer); conditions: 10 µM single dose
Description: as §1, §2

[33] = system: RPMI-8226 (Leukaemia); conditions: 10 µM single dose
Description: as §1, §2

[34] = system: RXF 393 (Renal cancer); conditions: 10 µM single dose
Description: as §1, §2

[35] = system: SF-268 (CNS cancer); conditions: 10 µM single dose
Description: as §1, §2

[36] = system: SF-295 (CNS cancer); conditions: 10 µM single dose
Description: as §1, §2

[37] = system: SK-MEL-2 (Melanoma); conditions: 10 µM single dose
Description: as §1, §2

[38] = system: SK-MEL-28 (Melanoma); conditions: 10 µM single dose
Description: as §1, §2

[39] = system: SN12C (Renal cancer); conditions: 10 µM single dose
Description: as §1, §2

[40] = system: SNB-75 (CNS cancer); conditions: 10 µM single dose
Description: as §1, §2

[41] = system: SR (Leukaemia); conditions: 10 µM single dose
Description: as §1, §2

[42] = system: SW-620 (Colon cancer); conditions: 10 µM single dose
Description: as §1, §2

[43] = system: T-47D (Breast cancer); conditions: 10 µM single dose
Description: as §1, §2

[44] = system: TK-10 (Renal cancer); conditions: 10 µM single dose
Description: as §1, §2

[45] = system: U251 (CNS cancer); conditions: 10 µM single dose
Description: as §1, §2

[46] = system: UACC-257 (Melanoma); conditions: 10 µM single dose
Description: as §1, §2

[47] = system: UO-31 (Renal cancer); conditions: 10 µM single dose
Description: as §1, §2

[48] = Homo sapiens, read-out: cell growth inhibition

## Fc1cnccc1C1CC(c2ccc(N3CCNCC3)cc2)=NN1 (stereo not shown) [VIc, 1-(4-(5-(3-Fluoropyridin-4-yl)-4,5-dihydro-1H-pyrazol-3-yl)phenyl) piperazine]
[1]
  cell growth promotion: 111.09%
[2]
  cell growth promotion: 97.17%
[3]
  cell growth promotion: 99.87%
[4]
  cell growth promotion: 85.33%
[5]
  cell growth promotion: 80.62%
[6]
  cell growth promotion: 80.81%
[7]
  cell growth promotion: 95.69%
[8]
  cell growth promotion: 107.16%
[9]
  cell growth promotion: 97.59%
[10]
  cell growth promotion: 83.16%
[11]
  cell growth promotion: 72.42%
  inhibition at 10 µM: 27.6%
[12]
  cell growth promotion: 89.15%
[13]
  cell growth promotion: 60.16%
  inhibition at 10 µM: 39.8%
[14]
  cell growth promotion: 67.96%
[15]
  cell growth promotion: 77.92%
[16]
  cell growth promotion: 96.23%
[17]
  cell growth promotion: 94.31%
[18]
  cell growth promotion: 95.86%
[19]
  cell growth promotion: 93.43%
[20]
  cell growth promotion: 73.03%
[21]
  cell growth promotion: 84.58%
[22]
  cell growth promotion: 105.18%
[23]
  cell growth promotion: 114.26%
[24]
  cell growth promotion: 82.88%
[25]
  cell growth promotion: 83.85%
[26]
  cell growth promotion: 89.29%
[27]
  cell growth promotion: 94.92%
[28]
  cell growth promotion: 81.93%
[29]
  cell growth promotion: 106.03%
[30]
  cell growth promotion: 111.45%
[31]
  cell growth promotion: 95.06%
[32]
  cell growth promotion: 70.34%
[33]
  cell growth promotion: 92.51%
[34]
  cell growth promotion: 104.89%
[35]
  cell growth promotion: 107.32%
[36]
  cell growth promotion: 98.00%
[37]
  cell growth promotion: 92.72%
[38]
  cell growth promotion: 115.80%
[39]
  cell growth promotion: 89.56%
[40]
  cell growth promotion: 101.50%
[41]
  cell growth promotion: 90.38%
[42]
  cell growth promotion: 93.46%
[43]
  cell growth promotion: 82.20%
[44]
  cell growth promotion: 122.80%
[45]
  cell growth promotion: 95.06%
[46]
  cell growth promotion: 83.07%
[47]
  cell growth promotion: 77.18%

## COc1cc(C2CC(c3ccc(N4CCNCC4)cc3)=NN2)ccc1F (stereo not shown) [VIb, 1-(4-(5-(4-Fluoro-3-methoxyphenyl)-4,5-dihydro-1H-pyrazol-3-yl)phenyl) piperazine]
[1]
  cell growth promotion: 94.50%
[2]
  cell growth promotion: 90.59%
[3]
  cell growth promotion: 101.47%
[4]
  cell growth promotion: 70.80%
[5]
  cell growth promotion: 86.62%
[6]
  cell growth promotion: 69.44%
[7]
  cell growth promotion: 93.87%
[8]
  cell growth promotion: 103.62%
[9]
  cell growth promotion: 85.57%
[10]
  cell growth promotion: 86.01%
[11]
  cell growth promotion: 57.13%
  inhibition at 10 µM: 42.9%
[12]
  cell growth promotion: 84.17%
[13]
  cell growth promotion: 20.27%
  inhibition at 10 µM: 79.7%
[14]
  cell growth promotion: 82.04%
[15]
  cell growth promotion: 58.92%
  inhibition at 10 µM: 41.1%
[16]
  cell growth promotion: 93.81%
[17]
  cell growth promotion: 79.56%
[18]
  cell growth promotion: 84.68%
[19]
  cell growth promotion: 102.13%
[20]
  cell growth promotion: 68.65%
[21]
  cell growth promotion: 81.98%
[22]
  cell growth promotion: 101.87%
[23]
  cell growth promotion: 96.57%
[24]
  cell growth promotion: 89.08%
[25]
  cell growth promotion: 75.49%
[26]
  cell growth promotion: 89.15%
[27]
  cell growth promotion: 95.16%
[28]
  cell growth promotion: 66.27%
[29]
  cell growth promotion: 104.69%
[30]
  cell growth promotion: 101.51%
[31]
  cell growth promotion: 84.09%
[32]
  cell growth promotion: 64.23%
[33]
  cell growth promotion: 72.01%
[34]
  cell growth promotion: 95.32%
[35]
  cell growth promotion: 93.72%
[36]
  cell growth promotion: 97.70%
[37]
  cell growth promotion: 87.70%
[38]
  cell growth promotion: 109.51%
[39]
  cell growth promotion: 83.08%
[40]
  cell growth promotion: 88.85%
[41]
  cell growth promotion: 67.42%
[42]
  cell growth promotion: 91.67%
[43]
  cell growth promotion: 73.62%
[44]
  cell growth promotion: 113.60%
[45]
  cell growth promotion: 78.59%
[46]
  cell growth promotion: 80.93%
[47]
  cell growth promotion: 76.56%

## COc1cc(C=CC(=O)c2ccc(N3CCNCC3)cc2)ccc1F [Ve, 3-(4-Fluoro-3-methoxyphenyl)-1-(4-(piperazin-1-yl)phenyl) prop-2-en-1-one]
[1]
  cell growth promotion: 87.22%
[2]
  cell growth promotion: 100.79%
[3]
  cell growth promotion: 68.11%
[4]
  cell growth promotion: 66.42%
[5]
  cell growth promotion: 79.37%
[6]
  cell growth promotion: 22.15%
[6]; [48]
  inhibition at 10 µM: 77.8%
[7]
  cell growth promotion: 83.00%
[8]
  cell growth promotion: 105.61%
[9]
  cell growth promotion: 43.16%
[10]
  cell growth promotion: 101.42%
[11]
  cell growth promotion: 55.00%
  inhibition at 10 µM: 45%
[12]
  cell growth promotion: 91.26%
[13]
  cell growth promotion: 49.97%
[14]
  cell growth promotion: 59.94%
[15]
  cell growth promotion: 12.37%
  inhibition at 10 µM: 87.6%
[16]
  cell growth promotion: 60.47%
[17]
  cell growth promotion: 49.01%
[18]
  cell growth promotion: 78.43%
[19]
  cell growth promotion: 112.40%
[20]
  cell growth promotion: 34.68%
[20]; [48]
  inhibition at 10 µM: 65.3%
[21]
  cell growth promotion: 94.50%
[22]
  cell growth promotion: 80.14%
[23]
  cell growth promotion: 46.48%
[24]
  cell growth promotion: 86.54%
[25]
  cell growth promotion: 92.63%
[26]
  cell growth promotion: 73.01%
[27]
  cell growth promotion: 97.07%
[28]
  cell growth promotion: 61.19%
[29]
  cell growth promotion: 79.31%
[30]
  cell growth promotion: 121.73%
[31]
  cell growth promotion: 57.23%
[32]
  cell growth promotion: 51.40%
[33]
  cell growth promotion: 49.59%
[34]
  cell growth promotion: 101.92%
[35]
  cell growth promotion: 94.03%
[36]
  cell growth promotion: 95.92%
[37]
  cell growth promotion: 85.44%
[38]
  cell growth promotion: 106.02%
[39]
  cell growth promotion: 57.67%
[40]
  cell growth promotion: 89.05%
[41]
  cell growth promotion: 46.22%
[41]; [48]
  inhibition at 10 µM: 53.8%
[42]
  cell growth promotion: 50.69%
[43]
  cell growth promotion: 74.40%
[44]
  cell growth promotion: 101.24%
[45]
  cell growth promotion: 67.21%
[46]
  cell growth promotion: 76.08%
[47]
  cell growth promotion: 58.35%
